“Also recorded” adds a separate entry of the source.
Assays:
[1] = system: TH protein in human monocytes; experiment: TH Bio-ELISA on lysates of treated monocytes; type: cell-based; conditions: healthy donor monocytes, 4 hours; TNFα 17 ng/ml, IL6 17 ng/ml, XPro1595 50 ng/ml
Experimental: Adherent cells in culture were lifted using 0.02% EDTA in PBS, diluted with 5 volumes of PBS, and centrifuged at 100×g. Non-adherent cells (PC12) were centrifuged at 100×g for 5 minutes at room temperature, and cell pellets were washed 3 times with 5 volumes of sterile PBS. Primary macrophages and primary murine neuron cultures were washed thrice with ice-cold PBS, on ice. Cell pellets and adherent primary cells were then lysed in ice-cold lysis buffer (10 mM NaCl, 10% glycerol (v/v), 1 mM EDTA, 1 mM EGTA, and HEPES 20 mM, pH 7.6), with Triton X-100 added to a final concentration of 1%, containing 1× protease inhibitor cocktail (Millipore-Sigma, 539131) for one hour at 4° C. with rotation. Resulting lysate was centrifuged at 12,000×g for 15 minutes at 4° C. Supernatant was set aside for protein quantification by Lowry assay (Biorad, 5000112) and the remainder was stored at −80° C. until use for downstream assays.
Antibodies used for ELISA are described in Table 4. […]
Duplicate standard and sample wells were averaged, and background-subtracted based on blank wells. The concentration of TH for each experimental group was calculated using a quadratic curve equation calculated in Graphpad Prism 8, then normalized to total protein concentration per sample as calculated using the Lowry assay. […]

CD14+ monocytes [2] = experiment: Flow cytometry count of TH+ monocytes after in vitro treatment; type: cell-based, human; conditions: 4 hours, TNFα 17 ng/ml; for number of TH+ monocytes, fold change relative to vehicle: healthy donor monocytes, 2 million per well, TPA 100 ng/ml, IL6 17 ng/ml, XPro1595 50 ng/ml, n=3 per group
Experimental: Monocytes were isolated from total PBMCs prepared as described above^51 using negative selection (Biolegend, 480048) per manufacturer's instructions. Total PBMCs were Fc-blocked to reduce nonspecific binding, followed by incubations with biotin-conjugated antibody cocktail containing antibodies against all subsets except CD14 (negative selection), followed by incubation with magnetic-Avidin beads, allowing all subsets other than CD14+ monocytes to be bound to the magnet. Monocyte purity/enrichment was routinely verified to confirm that the final cell population was greater than 95% pure CD14+ cells (FIG. S2). CD14+ monocytes were collected from the supernatant fraction, washed, counted and density adjusted such that 2 million CD14+ monocytes were seeded per well (FIG. 5A) and treated for 4 hours with vehicle, TPA (100 ng/ml, Biolegend, 755802)^7, TNFα (17 ng/mL, Biolegend, 570102)^61, XPro1595 (50 ng/ml), or IL6 (17 ng/mL) in an ultra-low-adherence 6-well plate (Corning, 3471) to prevent adherence. Suspended cells from each treatment group were aspirated and placed in a 15 ml conical tube, with any remaining adherent cells detached by incubation with 700 uL Accumax solution for 3 minutes (Innovative Cell Technologies, AM105) and added to suspended cells. After pelleting cells by centrifugation (3 minutes×100 g, room temperature), cells were assayed by either flow cytometry^51 or lysed for ELISA as stated above (“Preparation of cell lysates”).
As previously published^51, cells for flow cytometry were fixed and permeabilized (eBioscience, 88-8824-00), and stained for intracellular marker TH (Millipore-Sigma, AB152, 1:100) followed by a species-specific secondary (anti-Rabbit BV421, BD, 565014). After resuspending the sample in a final volume of 250 uL PBS, 5 uL of Invitrogen CountBright Absolute Counting Beads (5000 beads/mL, Invitrogen, C36950) were added just prior to data acquisition (Sony Spectral Analyzer, SP6800). […]

monocytes = experiment: Monocyte viability at different TNFα treatment durations; type: cell-based, human
Experimental: There is strong evidence in the literature for increased TNFα in PD^27,34-36 including in the brain, cerebrospinal fluid, and serum of Parkinson's patients^27 as well as in Parkinsonian mice^37,38. […] Therefore, the hypothesis that ex vivo stimulation of monocytes from healthy subjects with TNFα stimulates TH expression was tested, as measured by changes in the number of TH-expressing monocytes, and/or the amount of TH per monocyte. Flow cytometry was employed to address the former, and bio-ELISA to address the latter. Two million monocytes isolated from whole blood of healthy donors were treated for 4 hours with tissue plasminogen activator (TPA, 100 ng/ml, positive control for increased monocyte TH expression^7), TNFα (17 ng/mL)^61 and compared with monocytes treated with vehicle (FIG. 6A). Monocytes were assayed for TH expression by two complementary methods: flow cytometry^51 (FIG. 6B-F) and ELISA (FIG. 6G-H). It is noted that because a prolonged TNFα exposure can induce cell toxicity^82-86, multiple treatment durations were tested. […] Therefore, a 4-hour treatment strategy was selected in this study.

CD14+ monocytes [3] = experiment: Intracellular flow cytometry for Ki67 (cell proliferation); type: cell-based, human; conditions: TNFα treated monocytes
Experimental: To control for donor variability, identical quantities of counting beads were added as a reference. The number of TH+ monocytes was quantified by flow cytometry (FIG. 6B, left) in two experimental groups: TPA-treated and TNFα-treated. Monocytes in each condition were gated to isolate single cells expressing TH (FIG. 6B). […] A possible mechanism for this observation is either monocyte proliferation during the treatment period or an altered monocyte phenotype in response to TNFα, with no change in total number of monocytes. In other words, following TNFα treatment, TH+ monocytes may either be increasing in number (proliferation) or existing monocytes upregulate TH expression and become TH+ (phenotypic change). While a four-hour exposure to TNFα is an insufficient time period to induce proliferative events in immune cells^74, these possibilities could not be confidently ruled out without additional analyses. Therefore, monocyte proliferation was quantified by comparing the total number of monocytes per microliter of untreated vs. TNFα treated experimental group. […] A more rigorous approach was conducted to assess Ki67 expression as a measure of cell proliferation^87. […] While this finding explains our earlier observation of increased numbers of TH+ cells, the potential phenotypic shift following TNFα mediated immune stimulation was an unpredicted and novel finding.

## IL6: interleukin-6 (IL6), a cytokine with pleiotropic effects
[1]
  TH concentration (picogram per milligram total protein) relative to vehicle: Neither IL6 nor IL6+XPro1595 significantly increased TH quantity
CD14+ monocytes [2]
  number of TH+ monocytes, fold change relative to vehicle: no significant change in the number of TH+ monocytes

## TNFα
monocytes; 4-hour TNFα (17 ng/ml) treatment
  cell viability: minimal effect on cell viability
monocytes; longer TNFα exposure (more than 4 hours)
  cell viability: substantially decreased cell viability
[1]
  TH concentration (picogram per milligram total protein) relative to vehicle: significantly increased the amount of TH protein; also recorded: significantly increases
CD14+ monocytes [2]
  total number of monocytes per microliter, untreated vs. treated: unchanged
  number of TH+ monocytes, fold change relative to vehicle: significant increases in TH-expressing monocytes relative to vehicle
CD14+ monocytes [3]
  Ki67 expression relative to vehicle-treated controls: no change in Ki67 expression
